Article PMC6412051 (Scientific Reports, 2019)

Tests used:
[1] = Formation/stability constant by continuous variation (Job's) method; format: physicochemical; conditions: equimolar solutions in methanol, room temperature
From the text: In Fig. 1, the extrapolated value at the point of cross section on the Job’s curve corresponds to the total absorbance of the complex, if the complex formation had been completed. Since the complex is dissociative in nature, the actual absorbance is somewhat lower than the absorbance […].
The colour of the solution changed from brown to orange. Wavelength of maximum absorbance was noted against a blank, which appeared at 296 nm. All the measurements were made at 296 nm.

[2] = oral administration; cited from earlier work

For [Ru(p-cymene)Cl(SPR)], the “formation constant of the complex (log K)” value [1] was 5.45.
For `CCN1CCCC1CNC(=O)c1cc(S(N)(=O)=O)ccc1OC` (centres unmarked) [SPR, Sulpiride], the bioavailability [2] is listed as “approximately 30%”.
